{"source": "patent US9694003B2", "about": "“Formulations and methods for treating high intraocular pressure” (Bridge Pharma, Inc., priority 2015, dated 2017)", "key": {"[1]": {"tested_on": "Escherichia coli, Pseudomonas aeruginosa, Staphylococcus aureus, Aspergillus brasiliensis, Candida albicans", "experiment": "Preservative Challenge Test (USP 51 Antimicrobial Effectiveness Testing), all five organisms", "type": "cell-based", "settings": "ocular formulation without preservatives, concentrations useful for decreasing IOP", "description": "METHOD: The standardized Preservative Challenge Test (U.S. Pharmacopeia 51 Antimicrobial Effectiveness Testing) have been used for tests of self-preservation by norketotifen in concentrations to be used for patients suffering from allergic conjunctivitis and xerophthalmia. USP (51) is a standard test used to determine the antimicrobial effectiveness of test articles and ophthalmic formulations. The present tests were using 150 ml of each formulation and covered the mandatory five organisms: Escherichia coli (fermentative G−), Pseudomonas aeruginosa (non-fermentative G−), Staphylococcus aureus (G+), Aspergillus brasiliensis (mold), and Candida albicans (yeast). The number of inoculated cells was 0.5×10^5 per mL and the incubation temperature was 25° C. for all inoculations. Plating for measuring of recoveries were performed weekly over 4 weeks. The norketotifen formulations were defined as being self-preserving only if the numbers of cell colonies remained constant (fungi) and were declining (bacteria) according to the strictly standardized USP 51 protocol. Tests were performed at pH 4.0, pH 4.5, pH 5.0 and pH 6.0 and the test articles were dissolved in BSA/water (BSA=bovine serum albumin) containing at least 0.01 percent norketotifen (calculated as free base). […]\n(§1) Yeast and Molds (Fungi): No increase from the initial calculated count at 14 or 28 days."}, "Escherichia coli": {"tested_on": "Escherichia coli", "experiment": "Preservation challenge test (USP 51), E. coli", "type": "cell-based", "settings": "saline formulation, pH 5.0", "description": "(§2) METHOD: The standardized Preservative Challenge Test (U.S. Pharmacopeia 51 Antimicrobial Effectiveness Testing) have been used for tests of self-preservation by norketotifen in concentrations to be used for patients suffering from allergic conjunctivitis and xerophthalmia. USP (51) is a standard test used to determine the antimicrobial effectiveness of test articles and ophthalmic formulations. The present tests were using 150 ml of each formulation and covered the mandatory five organisms: Escherichia coli (fermentative G−), Pseudomonas aeruginosa (non-fermentative G−), Staphylococcus aureus (G+), Aspergillus brasiliensis (mold), and Candida albicans (yeast). The number of inoculated cells was 0.5×10^5 per mL and the incubation temperature was 25° C. for all inoculations. Plating for measuring of recoveries were performed weekly over 4 weeks. The norketotifen formulations were defined as being self-preserving only if the numbers of cell colonies remained constant (fungi) and were declining (bacteria) according to the strictly standardized USP 51 protocol. […] All solutions used in the antimicrobial studies were devoid of added preservatives.\n(§3) USP Criteria for Tested Microorganisms (Category 1)\n(§4) Bacteria: Not less than a 3.0 logarithmic reduction from the initial count to the count at 14 days, and no increase from the counts at 14 days to the counts at 28 days."}, "Staphylococcus aureus": {"tested_on": "Staphylococcus aureus", "experiment": "Preservation challenge test (USP 51), S. aureus", "type": "cell-based", "settings": "saline formulation, pH 5.0", "description": "as §2, §3, §4"}, "Candida albicans": {"tested_on": "Candida albicans", "experiment": "Preservation challenge test (USP 51), C. albicans", "type": "cell-based", "settings": "saline formulation, pH 5.0", "description": "as §2, §3, §1"}, "Aspergillus brasiliensis": {"tested_on": "Aspergillus brasiliensis", "experiment": "Preservation challenge test (USP 51), A. brasiliensis", "type": "cell-based", "settings": "saline formulation, pH 5.0", "description": "as §2, §3, §1"}, "Pseudomonas aeruginosa": {"tested_on": "Pseudomonas aeruginosa", "experiment": "Preservation challenge test (USP 51), P. aeruginosa", "type": "cell-based", "settings": "saline formulation, pH 5.0", "description": "as §2, §3, §4"}, "[2]": {"experiment": "Solubility of norketotifen HF in non-aqueous carriers", "type": "physicochemical", "description": "The intraocular formulations contain a carrier, such as water which is the carrier for an aqueous solution. Non-aqueous carriers include polyethylene glycol (PEG) and/or propylene glycol (PG) can be used in ophthalmic compositions. […] Norketotifen can be dissolved in water in concentrations up to about 0.2 wt %. Exemplary non-aqueous solvents include polyethylene glycol (about 0.1% to about 90%) and propylene glycol (about 0.1% to about 90%)."}, "[3]": {"tested_on": "intraocular pressure in the eyes of rabbits", "experiment": "Intraocular pressure during repeated daily norketotifen eye-drops", "type": "in vivo", "settings": "6 rabbits", "description": "(§5) Fifty-two rabbits (26F+26M) were assigned to four groups and were administered repeated daily doses of norketotifen HF solutions by the ocular route, 0.00, 0.0345, 0.0690 and 0.138 wt % for 6 weeks. […] In addition to regular toxicology parameters, ophthalmic parameters and ocular irritation scores were assessed. Blood samples were collected at predetermined time intervals. Plasma sample were analyzed using a validated LCMS-MS method. Plasma pharmacokinetics was calculated.\nIn the previously described Ocular Irritation/Toxicity Study (Example 7), intraocular pressure was measured in the eyes of one group of rabbits (3M+3F), before, during and after repeated daily ocular treatment with norketotifen eye-drops. […] The group tested for effects on IOP consisted of 12 eyes and the dose administered was 0.14 wt % and norketotifen was administered daily for 6 weeks, followed by a two-week recovery period without norketotifen administration. Day 42 was the last day of the treatment period and Day 56 was the last day of the recovery period."}, "rabbits": {"tested_on": "rabbits", "experiment": "Ocular irritation/toxicity study, repeated daily ocular doses", "type": "in vivo", "settings": "repeated daily doses for 6 weeks, highest concentration tested", "description": "as §5"}, "trabecular mesh": {"tested_on": "trabecular mesh", "settings": "within 15 minutes of exposure; cited from earlier work"}, "cornea": {"tested_on": "cornea", "settings": "topical application to the eye, usual clinical concentration; cited from earlier work"}, "eye": {"tested_on": "eye", "settings": "cited from earlier work"}, "macrophages": {"tested_on": "macrophages", "settings": "cited from earlier work"}}}
{"compound": "CN1CCC(=C2c3ccccc3CC(=O)c3sccc32)CC1.O=C(O)/C=C/C(=O)O", "note": "[KETO, RS-ketotifen hydrogen fumarate, reference compound]", "values": [{"measurement": "self-preservation test, conclusion", "setting": "[1]", "result": "not pass the self-preservation test"}, {"measurement": "E. coli CFU/ml", "setting": "Escherichia coli; Day 0", "result": "1.5E+06", "unit": "CFU/ml"}, {"measurement": "E. coli CFU/ml", "setting": "Escherichia coli; Day 14", "result": "2.5E+04", "unit": "CFU/ml"}, {"measurement": "E. coli Log Reduc", "setting": "Escherichia coli; Day 14", "result": 1.78}, {"measurement": "E. coli CFU/ml", "setting": "Escherichia coli; Day 28", "result": "2.6E+06", "unit": "CFU/ml"}, {"measurement": "E. coli Log Reduc", "setting": "Escherichia coli; Day 28", "result": "None"}, {"measurement": "S. aureus CFU/ml", "setting": "Staphylococcus aureus; Day 0", "result": "2.0E+06", "unit": "CFU/ml"}, {"measurement": "S. aureus CFU/ml", "setting": "Staphylococcus aureus; Day 14", "result": "3.3E+06", "unit": "CFU/ml"}, {"measurement": "S. aureus Log Reduc", "setting": "Staphylococcus aureus; Day 14", "result": "None"}, {"measurement": "S. aureus CFU/ml", "setting": "Staphylococcus aureus; Day 28", "result": "3.6E+06", "unit": "CFU/ml"}, {"measurement": "S. aureus Log Reduc", "setting": "Staphylococcus aureus; Day 28", "result": "None"}, {"measurement": "C. albic CFU/ml", "setting": "Candida albicans; Day 0", "result": "7.9E+05", "unit": "CFU/ml"}, {"measurement": "C. albic CFU/ml", "setting": "Candida albicans; Day 14", "result": "3.0E+03", "unit": "CFU/ml"}, {"measurement": "C. albic CFU/ml", "setting": "Candida albicans; Day 28", "result": "1.1E+03", "unit": "CFU/ml"}, {"measurement": "C. albic Log Reduc", "setting": "Candida albicans; Day 28", "result": 0.25}, {"measurement": "A. brasil CFU/ml", "setting": "Aspergillus brasiliensis; Day 0", "result": "3.6E+05", "unit": "CFU/ml"}, {"measurement": "A. brasil CFU/ml", "setting": "Aspergillus brasiliensis; Day 14", "result": "4.8E+05", "unit": "CFU/ml"}, {"measurement": "A. brasil Log Reduc", "setting": "Aspergillus brasiliensis; Day 14", "result": "None"}, {"measurement": "A. brasil CFU/ml", "setting": "Aspergillus brasiliensis; Day 28", "result": "2.0E+05", "unit": "CFU/ml"}, {"measurement": "A. brasil Log Reduc", "setting": "Aspergillus brasiliensis; Day 28", "result": 0.25}, {"measurement": "P. aerugin CFU/ml", "setting": "Pseudomonas aeruginosa; Day 0", "result": "3.1E+05", "unit": "CFU/ml"}, {"measurement": "P. aerugin CFU/ml", "setting": "Pseudomonas aeruginosa; Day 14", "result": "1.5E+4", "unit": "CFU/ml"}, {"measurement": "P. aerugin Log Reduc", "setting": "Pseudomonas aeruginosa; Day 14", "result": 1.31}, {"measurement": "P. aerugin CFU/ml", "setting": "Pseudomonas aeruginosa; Day 28", "result": "2.3E+05", "unit": "CFU/ml"}, {"measurement": "P. aerugin Log Reduc", "setting": "Pseudomonas aeruginosa; Day 28", "result": 0.13}]}
{"compound": "O=C(O)C=CC(=O)O.O=C1Cc2ccccc2C(=C2CCNCC2)c2ccsc21", "note": "[norketotifen HF, RS-norketotifen hydrogen fumarate]", "values": [{"measurement": "solubility in polyethylene glycol (PEG 300)", "setting": "[2]; PEG 300", "result": "about 0.15 percent w/w"}, {"measurement": "solubility in propylene glycol", "setting": "[2]; propylene glycol", "result": "up to 1.0 wt %"}, {"measurement": "IOP (mm Hg; ± SD)", "setting": "[3]; Day 1 (pretest), 12 eyes", "result": "20.4 ± 2.9", "unit": "mm Hg"}, {"measurement": "IOP (mm Hg; ± SD)", "setting": "[3]; Day 42 (treatment), 0.14 wt % eye-drops daily for 6 weeks, P = 0.0005 vs. Day 1", "result": "16.5 ± 1.7", "unit": "mm Hg"}, {"measurement": "IOP (mm Hg; ± SD)", "setting": "[3]; Day 56 (recovery, two weeks without dosing), P < 0.0001 vs. Day 42", "result": "20.5 ± 1.6", "unit": "mm Hg"}, {"measurement": "E. coli CFU/ml", "setting": "Escherichia coli; Day 0", "result": "8.5E+05", "unit": "CFU/ml"}, {"measurement": "E. coli CFU/ml", "setting": "Escherichia coli; Day 14", "result": "<5.0+00 CFU/ml"}, {"measurement": "E. coli Log Reduc", "setting": "Escherichia coli; Day 14", "result": ">5.23"}, {"measurement": "E. coli CFU/ml", "setting": "Escherichia coli; Day 28", "result": "<5.0+00 CFU/ml"}, {"measurement": "E. coli Log Reduc", "setting": "Escherichia coli; Day 28", "result": ">5.23"}, {"measurement": "S. aureus CFU/ml", "setting": "Staphylococcus aureus; Day 0", "result": "2.5E+05", "unit": "CFU/ml"}, {"measurement": "S. aureus CFU/ml", "setting": "Staphylococcus aureus; Day 14", "result": "<5.0+00 CFU/ml"}, {"measurement": "S. aureus Log Reduc", "setting": "Staphylococcus aureus; Day 14", "result": ">4.70"}, {"measurement": "S. aureus CFU/ml", "setting": "Staphylococcus aureus; Day 28", "result": "<5.0+00 CFU/ml"}, {"measurement": "S. aureus Log Reduc", "setting": "Staphylococcus aureus; Day 28", "result": ">4.70"}, {"measurement": "C. albic CFU/ml", "setting": "Candida albicans; Day 0", "result": "6.0E+05", "unit": "CFU/ml"}, {"measurement": "C. albic CFU/ml", "setting": "Candida albicans; Day 14", "result": "<5.0+00 CFU/ml"}, {"measurement": "C. albic Log Reduc", "setting": "Candida albicans; Day 14", "result": ">5.08"}, {"measurement": "C. albic CFU/ml", "setting": "Candida albicans; Day 28", "result": "<5.0+00 CFU/ml"}, {"measurement": "C. albic Log Reduc", "setting": "Candida albicans; Day 28", "result": ">5.08"}, {"measurement": "A. brasil CFU/ml", "setting": "Aspergillus brasiliensis; Day 0", "result": "7.0E+05", "unit": "CFU/ml"}, {"measurement": "A. brasil CFU/ml", "setting": "Aspergillus brasiliensis; Day 14", "result": "5.75E+02", "unit": "CFU/ml"}, {"measurement": "A. brasil Log Reduc", "setting": "Aspergillus brasiliensis; Day 14", "result": 3.09}, {"measurement": "A. brasil CFU/ml", "setting": "Aspergillus brasiliensis; Day 28", "result": "3.10E+02", "unit": "CFU/ml"}, {"measurement": "A. brasil Log Reduc", "setting": "Aspergillus brasiliensis; Day 28", "result": 3.35}, {"measurement": "No-Observable-Adverse-Effect-Level (NOAEL)", "setting": "rabbits", "result": 0.138, "unit": "%"}, {"measurement": "P. aerugin CFU/ml", "setting": "Pseudomonas aeruginosa; Day 0", "result": "4.7E+05", "unit": "CFU/ml"}, {"measurement": "P. aerugin CFU/ml", "setting": "Pseudomonas aeruginosa; Day 14", "result": "<5.0+00 CFU/ml"}, {"measurement": "P. aerugin Log Reduc", "setting": "Pseudomonas aeruginosa; Day 14", "result": ">4.79"}, {"measurement": "P. aerugin CFU/ml", "setting": "Pseudomonas aeruginosa; Day 28", "result": "<5.0+00 CFU/ml"}, {"measurement": "P. aerugin Log Reduc", "setting": "Pseudomonas aeruginosa; Day 28", "result": ">4.97"}]}
{"compound": "benzalkonium chloride [BAK]", "values": [{"measurement": "concentration expressing toxicity that targets the trabecular mesh", "setting": "trabecular mesh", "result": 0.0001, "unit": "%"}, {"measurement": "concentration causing corneal neurotoxicity", "setting": "cornea", "result": 0.01, "unit": "%"}, {"measurement": "concentration inducing toxic ocular effects", "setting": "eye", "result": "≥ 0.0001", "unit": "%"}, {"measurement": "concentration that stimulates macrophages, increases phagocytosis and releases cytokines", "setting": "macrophages", "result": 0.0001, "unit": "%"}]}
